Test results reported in patent publication US9844535B2, “SHP2 inhibitors and methods of treating autoimmune and/or glomerulonephritis-associated diseases using SHP2 inhibitors” (Indiana University Research and Technology Corporation, priority 2013, dated 2017).
Entries after “also recorded” stand apart in the source; their conditions may differ.

Legend:
[1] = tested on: human T cells isolated from SLE patients; assay: Cultured human SLE T cells: IFNγ secretion, proliferation, viability; format: cell-based
Excerpt: All SLE human cells in the following Examples were isolated from SLE patients diagnosed according to the American College of Rheumatology classification criteria and recruited from the Division of Rheumatology at Beth Israel Deaconess Medical Center, Boston, Mass. under IRB protocol 2006-P-0298. Healthy gender- and age-matched control cells were also used for the Examples herein. Briefly, peripheral venous blood was collected in heparin-lithium tubes and peripheral blood mononuclear cells were prepared with ficoll-Paque centrifugation, as previously described in Grammatikos et al., Clin Immunol. 2014; 150: 192-200.
Human T cells were purified from frozen peripheral blood mononuclear cells (PBMC) isolated from SLE or normal donor patients. Briefly, frozen PBMCs were thawed in a 37° C. water bath for 1 to 2 minutes, and then gently added to pre-warmed RPMI1640 medium with 10% FBS (total 10 ml). The cells were centrifuged at 2000 rpm for 5 minutes at room temperature. The cell pellet was washed with 5 ml of pre-warmed RPMI 1640 medium with 10% FBS three times, followed by a final D-PBS (no calcium, no magnesium buffer) wash. Human T cells were then purified by a Pan T Cell Isolation Kit (human) from Miltenyi Biotec, as described above.
The purity of isolated T cells routinely exceeded 94%. After purification, T cells were resuspended in RPMI1640 medium with 10% FBS and 1×10^5 cells/well in 100 ul total volume was loaded onto a 96-well plate, either left uncoated or precoated with anti-CD3 antibody (1 ug/ml) (OKT3; Biolegend). […]
For cell viability, an MTT (thiazolyl Blue tetrazolium Bromide, M2128, Sigma, St. Louis, Mo.) assay was employed. […] Spectrophotometric absorbance of the samples was assessed using a microplate reader at a wavelength of 595 nm. T cell numbers/proliferation was assessed by cell count using a hemocytometer. […] After mixing, 10 μl of the mixture was loaded onto the hemocytometer and the total average number of cells/well was calculated. […]

SHP2 = SHP2 (Mus musculus (Mouse), UniProt P35235); assay: Immune complex PTP assay on tissue lysates of inhibitor-treated MRL/lpr mice; format: in vivo; settings: 7.5 mg/kg daily for 4 weeks, listed as SHP2 inhibitor
SHP2, sequence (P35235 whole entry): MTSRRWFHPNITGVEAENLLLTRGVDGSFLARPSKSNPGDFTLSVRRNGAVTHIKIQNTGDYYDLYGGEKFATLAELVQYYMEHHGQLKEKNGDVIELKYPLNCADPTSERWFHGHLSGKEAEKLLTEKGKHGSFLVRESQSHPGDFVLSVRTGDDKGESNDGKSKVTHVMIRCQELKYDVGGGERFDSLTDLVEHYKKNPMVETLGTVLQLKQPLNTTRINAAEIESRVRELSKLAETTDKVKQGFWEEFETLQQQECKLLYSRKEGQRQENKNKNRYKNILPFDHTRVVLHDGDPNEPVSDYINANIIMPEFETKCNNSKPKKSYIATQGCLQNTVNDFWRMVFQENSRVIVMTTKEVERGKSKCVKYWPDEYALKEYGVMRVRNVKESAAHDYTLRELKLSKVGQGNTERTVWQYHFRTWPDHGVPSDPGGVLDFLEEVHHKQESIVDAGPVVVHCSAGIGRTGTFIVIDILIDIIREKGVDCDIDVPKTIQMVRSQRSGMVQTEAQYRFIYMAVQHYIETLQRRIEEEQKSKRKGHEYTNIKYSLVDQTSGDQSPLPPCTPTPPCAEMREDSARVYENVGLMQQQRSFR
Procedure: Briefly, female MRL/MpJ-fas lpr (MRL/lpr), MRL/Mpj and C57BL/6J mice were purchased from the Jackson Laboratory (Bar Harbor, Me.). For experiments, mice within each group were ip injected with either vehicle (DMSO) or the SHP2 inhibitor (7.5 mg/kg/per day). […] Body weight was measured daily and treatment dosage was adjusted accordingly. At the end of the treatment period, mice were sacrificed with CO2 exsanguination and SLE targeted organs were removed. For each mouse, spleen, kidney, and heart weight were calculated. In addition, total animal body weight and tibia length were measured. Peripheral blood/serum was also collected for use in the cytokine assays described below.
PTP assays were conducted as previously described in Kontaridis et al., J Biol Chem. 2006; 281:6785-6792, using para-nitrophenyl phosphate (pNPP, obtained from Sigma) as substrate. […] Reactions were terminated with 0.2 N NaOH and phosphate release was determined by measuring A410. […]

Cn1c(-c2cccc(NC(=O)C(=O)Nc3ccc(-c4ccsc4)cc3)c2)c(I)c2cc(C(=O)O)c(O)cc21 [11a-1]
T cell viability ([1]; human SLE T cell cultures): no differences in viability
T cell proliferation in response to CD3 ([1]; human SLE T cells, 48 hours, 10 μg/ml): reduced T cell proliferation
secretion of IFNγ in response to T cell activation ([1]; human SLE T cells, CD3 antibody, 48 hours, 10 μg/ml): significantly decreased the secretion of IFNγ activity
SHP2 activity in tissue lysates (SHP2): normalized SHP2 activity back to levels of WT; also recorded: normalize SHP2 activity
